Experiments:
Ba/F3 cells, ABL1 WT = Ba/F3 cells, ABL1 WT (Homo sapiens, UniProt P00519); test: 96-well XTT cell survival assay, Ba/F3 ABL1 WT; format: cell-based; details: 72 hours, read-out: ABL1 WT XTT [Ba/F3] IC50
Description: (§1) MV4-11 and THP cells were maintained in Iscove's Modified Dulbecco's Medium supplemented with 10% fetal bovine serum (FBS) and penicillin/streptomycin, Ba/F3 cells were maintained in RPMI 1640 supplemented with 10% FBS, penicillin/streptomycin and 5 ng/ml recombinant mouse IL-3.
(§2) Compounds were tested in the following assays in duplicate.
(§3) 96-well XTT assay: Cells (e.g. BaF3 315I, M351I, or E255K cells) were grown in growth media containing various concentrations of compounds (duplicates) on a 96-well plate for 72 hours at 37° C. The starting cell number was 5000-8000 cells per well and volume was 120 μl. At the end of the 72-hour incubation, 40 μl of XTT labeling mixture (50:1 solution of sodium 3′-[1-(phenylamino-carbonyl)-3,4-tetrazolium]-bis(4-methoxy-6-nitro)benzene sulfonic acid hydrate and Electron-coupling reagent: PMS (N-methyl dibenzopyrazine methyl sulfate) were added to each well of the plate. After an additional 2-6 hours of incubation at 37° C., the absorbance reading at 405 nm with background correction at 650 nm was measured with a spectrophotometer.

[1] = target: T1, unphosphorylated T315I Abl kinase domain (Mus musculus, UniProt P00520, T315I); test: c-Abl T315I 0P bioassay (pyruvate kinase/lactate dehydrogenase coupled enzyme assay); format: biochemical; details: zero phosphorylation state (0P), 10 μM ATP, read-out: AbI T315I 0P IC50
T1 construct: purified and unphosphorylated T315I Abl kinase domain; made in house; host or cells: E. coli BL21(DE3) (Codon+RIL or pSA0145 strain)
T1 sequence (P00520 242-493 T315I limits assumed): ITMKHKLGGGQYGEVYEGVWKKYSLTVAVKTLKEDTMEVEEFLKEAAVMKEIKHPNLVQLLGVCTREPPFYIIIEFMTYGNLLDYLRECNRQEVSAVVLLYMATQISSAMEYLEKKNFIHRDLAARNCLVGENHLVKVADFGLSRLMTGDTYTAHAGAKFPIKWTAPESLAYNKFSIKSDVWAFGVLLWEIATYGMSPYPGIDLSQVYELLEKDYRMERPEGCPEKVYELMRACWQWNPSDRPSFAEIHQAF
Description: Although the first of these examples uses the kinase domain of a mutant form of Abl T315I (“Abl T315I KD”), the kinase assays may use various forms of mutant and wild type enzymes, including, for example, the entire protein, the kinase domain, or a portion thereof (e.g. Abl Y393F). The kinases used in the assays may also be of varying phosphorylation states. In the c-Abl example, a mutant kinase at a zero phosphorylation state was used. c-Abl Pyruvate Kinase/Lactate Dehydrogenase Coupled Enzyme Assay
In the c-Abl Pyruvate Kinase (PK)/Lactate Dehydrogenase (LDH) Coupled Assay the protein kinase dependant phosphorylation of a substrate peptide was coupled to the oxidation of NADH. The oxidation of NADH to NAD+ was detected by monitoring a decrease in absorbance at 340 nm.
Materials: Abl substrate peptide=EAIYAAPFAKKK (SEQ ID NO: 1)—OH (Biopeptide, San Diego, Calif.); pNADH (Sigma Cat#N-8129, FW=709.4); 2M MgC12; 1M HEPES buffer, pH 7.5; Phosphoenolpyruvate (PEP) (Sigma Cat#P-7002, FW=234); Lactate dehydrogenase (LDH) (Worthington Biochemical Cat#2756); Pyruvate Kinase (PK) (Sigma Cat#P-9136); ATP (Sigma Cat#A-3377, FW=551); Greiner 384-well UV star plate; and purified and unphosphorylated T315I Abl kinase domain.
Stock Solutions: 10 mM NADH (7.09 mg/ml in miliQH2O) made fresh daily; 10 mM Abl substrate peptide (13.4 mg/ml in miliQH2O) stored at −20° C.; 100 mM HEPES buffer, pH 7.5 (5 ml 1M stock+45 ml miliQH2O); 100 mM MgCl2 (5 ml 2M MgCl2+95 ml dH2O); 100 MM PEP (23.4 mg/ml in dH2O) stored at −20° C.; 10 mM ATP (5.51 mg/ml in dH2O) stored at −20° C. (diluted 50 μl into total of 10 ml miliQH2O daily=50 μM ATP working stock); 1000 U/ml PK (U/mg varies with lot) flash-frozen under liquid N2 and stored at −80° C.; and 1000 U/ml LDH (U/mg varies with lot) flash-frozen under liquid N2 and stored at −80° C.
Standard Assay Setup for 384-well format (50 μl reaction): 300 μM NADH; 10 mM MgCl2; 2 mM PEP; 45U/ml PK; 60 U/ml LDH; 200 μM Abl substrate peptide; 2.5 μl test compound (in DMSO); 2 μg/ml Abl kinase domain; 10 μM ATP; 100 mM HEPES buffer. Positive controls contained DMSO with no test compound. Negative controls contained 5 μl of 0.5M EDTA (50 mM in the assay). The dephosphorylated form of the c-Abl T315I mutant was used in the biochemical screening assays. The kinase reaction was initiated at time t=0 by the addition of ATP.
Activity was measured by following the time-dependent loss of NADH by absorbance spectroscopy at 340 nm. The linear portion of the resulting progress curve was then analyzed by linear regression to get the activity in absorbance units/time, reported as the slope of that best fit line (moles/unit time can be calculated from using molar extinction coefficient for NADH at 340 nm, 6250M^−1 cm^−1).
Data was evaluated using the equation: Z′=1−[3*(σ++σ−)/|μ+−μ−|](Zhang, et al., 1999 J Biomol Screening 4(2) 67-73), where μ denotes the mean and σ the standard deviation. The subscript designates positive or negative controls. The Z′ score for a robust screening assay should be ≧0.50. The typical threshold=μ+−3*σ+. Any value that falls below the threshold was designated a “hit”.
Dose response was analyzed using the equation: y=min+{(max−min)/(1+10^[compound]−logIC50)}, where y is the observed initial slope, max=the slope in the absence of inhibitor, min=the slope at infinite inhibitor, and the IC50 is the [compound] that corresponds to ½ the total observed amplitude (Amplitude=max−min).
To measure modulation, activation, or inhibition of Abl KD, a test compound was added to the assay at a range of concentrations. Inhibitors may inhibit Abl KD activity at an IC50 in the micromolar range, the nanomolar range, or, for example, in the subnanomolar range.
An open-reading frame for c-Abl was amplified from a Mus musculus (mouse) cDNA library prepared from freshly harvested mouse liver using a commercially available kit (invitrogen) by PCR using the following primers: […]
The c-Abl T315I KD (kinase domain) was purified as follows. […]

Ba/F3 cells, ABL1 T315I = Ba/F3 cells, ABL1 T315I (Homo sapiens, UniProt P00519, T315I, cells depend on it); test: 96-well XTT cell survival assay, Ba/F3 ABL1 T315I; format: cell-based; details: 72 hours, read-out: ABL1 T315I XTT [Ba/F3] IC50
Description: as §1, §2, §3

Row | Compound | GI50 (Ba/F3 cells, ABL1 WT) | IC50 [1] | GI50 (Ba/F3 cells, ABL1 T315I)
1 | COc1ccccc1-c1c[nH]c2ncc(-c3cccc(C(CC(=O)N4CCC[C@@H]4CO)N4CCS(=O)(=O)CC4)c3)cc12 (stereo partly shown) | > 1000 nM | 50 to 500 nM | > 1000 nM
2 | COc1ccccc1-c1c[nH]c2ncc(-c3cccc(C(C(=O)N(C)C)N4CCNCC4)c3)cc12 (stereo not shown) | > 1000 nM | < 50 nM | > 1000 nM
3 | COc1ccccc1-c1n[nH]c2ncc(-c3cccc(C(OC)C(=O)N4CC(O)C4)c3)cc12 (stereo not shown) |  | < 50 nM | 
4 | COc1ccccc1-c1n[nH]c2ncc(-c3cccc(C(O)CN)c3)cc12 (stereo not shown) |  | < 50 nM | 
5 | CNCCN(C)C(=O)C(N)c1cccc(-c2cnc3[nH]cc(-c4ccccc4OC)c3c2)c1 (stereo not shown) | > 1000 nM | < 50 nM | > 1000 nM
6 | COc1ccccc1-c1n[nH]c2ncc(-c3cccc(C(O)C(=O)N(C)CC#N)c3)cc12 (stereo not shown) | < 1000 nM | < 50 nM | > 1000 nM
7 | COc1ccccc1-c1n[nH]c2ncc(-c3cccc(C(O)C(=O)N(C)CCC#N)c3)cc12 (stereo not shown) | < 1000 nM | < 50 nM | < 1000 nM
8 | COc1ccccc1-c1n[nH]c2ncc(-c3cccc(C(O)C(=O)N(C)C4CCOCC4)c3)cc12 (stereo not shown) | < 1000 nM | < 50 nM | < 1000 nM
9 | COc1ccccc1-c1n[nH]c2ncc(-c3cccc(C(O)C(=O)N(C)Cc4ccco4)c3)cc12 (stereo not shown) | > 1000 nM | < 50 nM | > 1000 nM
10 | COc1ccccc1-c1n[nH]c2ncc(-c3cccc(C(O)C(=O)N(C)CCO)c3)cc12 (stereo not shown) | < 1000 nM | < 50 nM | < 1000 nM
11 | COc1ccccc1-c1c[nH]c2ncc(-c3cncc(C(O)C(=O)N(C)C)c3)cc12 (stereo not shown) | < 1000 nM | < 50 nM | < 1000 nM
12 | COc1ccccc1-c1n[nH]c2ncc(-c3cccc(C(O)C(=O)N(C4CC4)C4CCN(C)CC4)c3)cc12 (stereo not shown) | < 1000 nM | < 50 nM | < 1000 nM
13 | COc1ccccc1-c1n[nH]c2ncc(-c3cccc(C(O)C(=O)N(C)CCNC(C)(C)C)c3)cc12 (stereo not shown) | < 1000 nM | < 50 nM | < 1000 nM
14 | COc1ccccc1-c1n[nH]c2ncc(-c3cccc(C(C)C(=O)N(C)C)c3)cc12 (stereo not shown) | > 1000 nM | < 50 nM | > 1000 nM
15 | COc1ccccc1-c1n[nH]c2ncc(-c3cccc(C(C)C(=O)N(C)CCN(C)C)c3)cc12 (stereo not shown) | > 1000 nM | < 50 nM | > 1000 nM
16 | COc1ccccc1-c1n[nH]c2ncc(-c3cccc(C(C)C(=O)N4CCC(N(C)C)C4)c3)cc12 (stereo not shown) | < 1000 nM | < 50 nM | < 1000 nM
17 | COc1ccccc1-c1n[nH]c2ncc(-c3cccc(C(C)C(=O)N(C)C4CCN(C)C4)c3)cc12 (stereo not shown) | < 1000 nM | < 50 nM | > 1000 nM
18 | COc1ccccc1-c1n[nH]c2ncc(-c3cccc(C(C)C(=O)N4CCC(O)C4)c3)cc12 (stereo not shown) | > 1000 nM | < 50 nM | > 1000 nM
19 | COc1ccccc1-c1n[nH]c2ncc(-c3cccc(C(C)C(=O)N4CCC(N(C)C)CC4)c3)cc12 (stereo not shown) | < 1000 nM | < 50 nM | < 1000 nM
20 | COc1ccccc1-c1n[nH]c2ncc(-c3cccc(C(C)C(=O)N4CCC(O)CC4)c3)cc12 (stereo not shown) | < 1000 nM | < 50 nM | > 1000 nM

Row | Compound | GI50 (Ba/F3 cells, ABL1 WT) | IC50 [1] | GI50 (Ba/F3 cells, ABL1 T315I)
21 | COc1ccccc1-c1n[nH]c2ncc(-c3cccc(C(C)C(=O)N4CC(O)C4)c3)cc12 (stereo not shown) | > 1000 nM | < 50 nM | > 1000 nM
22 | CNC(C(=O)N1CCC(O)C1)c1cccc(-c2cnc3[nH]nc(-c4ccccc4OC)c3c2)c1 (stereo not shown) |  | < 50 nM | 
23 | COc1ccccc1-c1n[nH]c2ncc(-c3cccc(C(C(=O)N(C)C)N(C)C)c3)cc12 (stereo not shown) |  | 50 to 500 nM | 
24 | COc1ccccc1-c1n[nH]c2ncc(-c3cccc(C(C(=O)N4CCC(O)C4)N(C)C)c3)cc12 (stereo not shown) |  | 50 to 500 nM | 
25 | COc1ccccc1-c1n[nH]c2ncc(-c3cccc(C(C(=O)N(C)C(C)C)N(C)C)c3)cc12 (stereo not shown) |  | 50 to 500 nM | 
26 | COc1ccccc1-c1c[nH]c2ncc(-c3cncc(C(O)C(=O)N(C)C)n3)cc12 (stereo not shown) |  | > 500 nM | 
27 | COc1ccccc1-c1n[nH]c2ncc(-c3cccc([C@@H]4OCO[C@H]4C(C)C)c3)cc12 |  | < 50 nM | 
28 | CC(=O)Nc1ccc(-c2c[nH]c3ncc(-c4cncc(C(O)C(=O)N(C)C)c4)cc23)cc1 (stereo not shown) |  | < 50 nM | > 1000 nM
29 | CN(C)C(=O)C(O)c1cncc(-c2cnc3[nH]cc(-c4cccc(C#N)c4)c3c2)c1 (stereo not shown) |  | 50 to 500 nM | 
30 | CN(C)C(=O)C(O)c1cncc(-c2cnc3[nH]cc(-c4ccc(C(F)(F)F)cc4)c3c2)c1 (stereo not shown) |  | 50 to 500 nM | 
31 | Cc1noc(C)c1-c1c[nH]c2ncc(-c3cncc(C(O)C(=O)N(C)C)c3)cc12 (stereo not shown) |  | 50 to 500 nM | 
32 | CN(C)C(=O)C(O)c1cncc(-c2cnc3[nH]cc(-c4cnn(C)c4)c3c2)c1 (stereo not shown) |  | 50 to 500 nM | 
33 | CN(C)C(=O)C(O)c1cncc(-c2cnc3[nH]cc(-c4ccn(-c5ccccc5)n4)c3c2)c1 (stereo not shown) |  | 50 to 500 nM | 
34 | CN(C)C(=O)C(O)c1cncc(-c2cnc3[nH]cc(-c4ncco4)c3c2)c1 (stereo not shown) |  | 50 to 500 nM | 
35 | CN(C)C(=O)C(O)c1cncc(-c2cnc3[nH]cc(-c4cc(C(F)(F)F)nn4C)c3c2)c1 (stereo not shown) |  | > 500 nM | 
36 | CN(C)C(=O)C(=O)c1cncc(-c2cnc3[nH]cc(-c4ccnn4C)c3c2)c1 |  | > 500 nM | 
37 | COc1ccccc1-c1c[nH]c2ncc(-c3cccc(C(CC(=O)N(C)C)N4CCS(=O)(=O)CC4)c3)cc12 (stereo not shown) |  | > 500 nM | 
38 | COc1ccccc1-c1c[nH]c2ncc(-c3cccc(C(CC(=O)N(C)CCN(C)C)N4CCS(=O)(=O)CC4)c3)cc12 (stereo not shown) |  | > 500 nM | 
39 | CN(C)C(=O)C(O)c1cncc(-c2cnc3[nH]cc(-c4cccc(Cl)c4)c3c2)c1 (stereo not shown) [drawing 459] | < 1000 nM | < 50 nM | 
